# How the values were obtained:
# [1] = system: L929 cells; experiment: TGF-induced collagen synthesis in L929 cells, 96-well plate format (SIRCOL); type: cell-based; conditions: 72 hrs, FIG. 4C
# Method: Five thousand L929 cells were plated in complete DMEN and incubated until confluency for 3 days. Medium was removed and complete DMEM containg Prolin (20 μg/ml) and ascorbic acid (10 μM) was added. […] Cells were further incubated for 72 hrs. Supernatant was removed, 0.5% glutaraldehyde was added for 30 min at RT, removed, washed 3× with ddwater, 0.5 M acetic acid was added for 30 min at RT, removed, washed with water, air dried and 100 μl SIRCOL dye was added for 5 h at RT. Dye was removed, plate was washed extensively under running water, air dried and 200 μl of 0.5 M NaOH was added, plates were shaken at RT for 1 h, and OD was determined at 600 nm.
# [2] = human, in vivo, po
# From the text: Following screening, eligible healthy volunteer subjects were admitted to a single clinical study site and were randomized to 1 of 2 treatment sequences. […] In each period, a standardized breakfast was provided to subjects prior to administration of study drug (to compare the PK profiles in the clinically relevant fed state) and plasma samples were collected over a 48-hour period after dosing for evaluation of PK. Dosing between the 2 periods was separated by a minimum of 7 days. Subjects completed the study upon completion of the 48-hour post-dose assessments following dosing period 2.
# All capsules were identical in size, shape, and external color.
# [3] = system: L929 cells; experiment: TGF-induced soluble fibronectin synthesis in L929 cells (ELISA); type: cell-based; conditions: 500 μM; FIG. 4E
# Method: Five thousand L929 cells were plated in complete DMEN and incubated until confluency for 3 days.
# Fibronectin is another important component of fibrotic lungs as it is induced by TGF-β and functions both as a structural component of extra cellular matrix as well as well as a ligand for integrin receptors. Just like soluble collagen, binding of fibronectin to integrin receptors induces the proliferation of fibroblast and epithelial cells of the lungs.
# [4] = rat, in vivo
# Method: The original male TK animals received 1000 mg/kg of SD-559 on Day 1 and continued on study. The protocol was amended to add additional TK male animals in Group 6 for Day 1 collection of TK samples at 875 mg/kg.
# Blood samples were collected from 3 subsets of 3 animals/sex on Day 1 and Day 28 at pre-dose, 0.25, 0.5, 1, 2, 4. 8 and 24 hours (hr) post-dose for groups 2 to 6 and from one subset of 3 animals/sex at 0.25 hr post-dose for the vehicle group (group 1). […] Non-compartmental analysis (NCA) of plasma concentration data was conducted using Phoenix® WinNonlin®, version 8.0.
# [5] = system: LPS-induced plasma IL-6; experiment: LPS-induced plasma IL-6 after oral pretreatment in rats; type: in vivo, Sprague-Dawley rats; conditions: Mean ± St. Dev, n = 6-8; for Plasma IL-6 concentrations 4 hours after LPS: vehicle 13989 ± 6125; for Plasma IL-6 concentrations 1.5 hours after LPS: vehicle 40423 ± 8653
# Method: LPS was diluted with sterile saline to […] and sonicated at 40° C. for 20 minutes to generate a stock solution and stored at 4° C. Each day of use, the stock solution was further diluted to 0.03 mg/mL in sterile saline.
# Male Sprague-Dawley rats with indwelling femoral and jugular venous catheters (n=6-8 per dose and test article group) were used in this study. […] Sixty minutes after the oral dose, 0.03 mg/kg of LPS in 1 mL/kg saline was infused into the jugular vein.
# Blood samples were collected from the femoral vein into heparin-coated syringes 15 minutes prior to the LPS infusion (45 minutes after oral doses of test article), 90 minutes after the LPS infusion and 4 hours after the LPS infusion. Plasma was prepared by centrifugation of the blood samples at 14,000 rpm for 10 minutes. Plasma samples were stored at −70 ° C. until analysis.
# [6] = 30 mg/kg oral pretreatment 1 hour prior to LPS injection
# [7] = 100 mg/kg oral pretreatment 1 hour prior to LPS injection
# [8] = 300 mg/kg oral pretreatment 1 hour prior to LPS injection
smiles,measurement,setting,value
"[2H]C([2H])([2H])c1ccc(=O)n(-c2ccccc2)c1 [LYT-100, 5-(methyl-d3)-1-phenylpyridin-2-(1H)-one]",Effect on TGF-β-induced total collagen levels,[1]; 500 μM 1 h prior to TGF-β 5 ng/ml,inhibited or reduced
same,Effect on total collagen level in the absence of TGF-β induction,[1]; 500 μM,signficantly inhibited or reduced
same,Tolerability of single doses,[2],well tolerated
same,"Effect on soluble fibronectin levels, in the absence and presence of TGF-β-induction",[3],signficantly reduced
same,Accumulation after multiple dosing for 28 Days,[4],No accumulation
same,Plasma IL-6 concentrations 4 hours after LPS,[5]; [6],8174 ± 5504 pg/mL
same,Plasma IL-6 concentrations 1.5 hours after LPS,[5]; [6],18197 ± 6484 pg/mL
same,Plasma IL-6 concentrations 4 hours after LPS,[5]; [7],4632 ± 5930 pg/mL
same,Plasma IL-6 concentrations 1.5 hours after LPS,[5]; [7],21642 ± 17174 pg/mL
same,Plasma IL-6 concentrations 4 hours after LPS,[5]; [8],1550 ± 1414 pg/mL
same,Plasma IL-6 concentrations 1.5 hours after LPS,[5]; [8],13519 ± 8674 pg/mL

# — US20230129866A1 (PureTech LYT 100, Inc., priority 2020, published 2023)
